Test results: article PMC3664696 (The Journal of General Physiology, 2013)

Molecular target: T1, ASCT2 (alanine serine cysteine transporter 2) (Rattus norvegicus, UniProt D3ZJ25)
T1 sequence (D3ZJ25 1-555): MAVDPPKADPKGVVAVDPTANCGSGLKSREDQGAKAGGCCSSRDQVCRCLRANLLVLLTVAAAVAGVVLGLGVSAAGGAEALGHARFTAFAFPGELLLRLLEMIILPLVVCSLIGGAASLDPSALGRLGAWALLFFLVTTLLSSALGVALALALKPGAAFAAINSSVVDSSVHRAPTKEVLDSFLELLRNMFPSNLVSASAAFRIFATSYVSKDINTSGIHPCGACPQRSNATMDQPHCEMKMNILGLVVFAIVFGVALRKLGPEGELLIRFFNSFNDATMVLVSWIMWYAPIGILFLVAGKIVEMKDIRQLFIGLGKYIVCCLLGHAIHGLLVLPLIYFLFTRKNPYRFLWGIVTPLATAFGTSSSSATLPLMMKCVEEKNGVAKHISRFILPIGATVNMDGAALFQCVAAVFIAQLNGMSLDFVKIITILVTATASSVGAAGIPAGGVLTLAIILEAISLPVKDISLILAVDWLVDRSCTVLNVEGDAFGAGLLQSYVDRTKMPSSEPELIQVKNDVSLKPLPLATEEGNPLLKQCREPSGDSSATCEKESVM
Assay: whole-cell voltage clamp: alanine-induced anion currents
Assay type: cell-based

Km: 160 ± 50 µM
SMILES: C[C@H](N)C(=O)O [alanine]
